Source: patent US5675003A, “3-ammoniopropenyl cephalosporin compounds as antibacterial agents” (Korea Institute of Science and Technology, priority 1995, dated 1997)
≈ marks a conversion by molar mass, not a printed value.

How the values were obtained:
Test in all cases: MIC, in vitro agar dilution method
Format in all cases: cell-based
[1] = system: Pseudomonas eruginosa 1771; conditions: P.a.3, Pseudomonas eruginosa 1771
Method: (§1) The MICs of the new cephalosporins of the present invention against Gram-positive and Gram-negative bacteria were determined by an in vitro agar dilution method. For comparisons, the MIC values of ceftazidime are also listed.
(§2) In vitro antimicrobial activity of the cephalosporins (l) (MIC:
P.a.3, Pseudomonas eruginosa 1771;

[2] = system: Klebsiella aerogenes 1552 E; conditions: K.a., Klebsiella aerogenes 1552 E; agar dilution; read-out: MIC
Method: as §1, §2
K.a., Klebsiella aerogenes 1552 E;

[3] = system: E.c.5; conditions: Escherichia coli, E.c.5 (strain not defined)
Method: as §1

[4] = system: Klebsiella oxytoca 1082 E; conditions: K.o., Klebsiella oxytoca 1082 E; agar dilution; read-out: MIC
Method: as §1, §2
K.o., Klebsiella oxytoca 1082 E;

[5] = system: Staphlococcus aureus SG 511; conditions: S.a.1, Staphlococcus aureus SG 511; agar dilution; read-out: MIC
Method: as §1, §2
S.a.1, Staphlococcus aureus SG 511;

[6] = system: Salmonella typhimurium; conditions: Salmonella enterica; S.t., Salmonella typhimurium; agar dilution; read-out: MIC
Method: as §1, §2
S.t., Salmonella typhimurium;

[7] = system: Pseudomonas aeruginosa 9027; conditions: P.a.1, Pseudomonas aeruginosa 9027; agar dilution; read-out: MIC
Method: as §1, §2
P.a.1, Pseudomonas aeruginosa 9027;

[8] = system: Streptococcus pyogenes A 77; conditions: A77; S.p.2, Streptococcus pyogenes A 77; agar dilution; read-out: MIC
Method: as §1, §2
S.p.2, Streptococcus pyogenes A 77;

[9] = system: Enterobacter cloacae 1321 E; conditions: En.c.2, Enterobacter cloacae 1321 E; agar dilution; read-out: MIC
Method: as §1, §2
En.c.2, Enterobacter cloacae 1321 E.

[10] = system: Staphylococcus aureus 285; conditions: S.a.2, Staphylococcus aureus 285; agar dilution; read-out: MIC
Method: as §1, §2
E.c. TEM, S.a. 2, Staphylococcus aureus 285;

[11] = system: Pseudomonas aeruginosa 1592 E; conditions: P.a.2, Pseudomonas aeruginosa 1592 E; agar dilution; read-out: MIC
Method: as §1, §2
P.a.2, Pseudomonas aeruginosa 1592 E;

[12] = system: Escherichia coli O55; conditions: E.c.1, Escherichia coli O55
Method: as §1, §2
E.c.1, Escherichia coli O55;

[13] = system: Pseudomonas aeruginosa 1771 M; conditions: P.a.4, Pseudomonas aeruginosa 1771 M; agar dilution; read-out: MIC
Method: as §1, §2
P.a.4, Pseudomonas aeruginosa 1771 M;

[14] = system: Staphylococcus aureus 503; conditions: S.a.3, Staphylococcus aureus 503; agar dilution; read-out: MIC
Method: as §1, §2
S.a.3, Staphylococcus aureus 503;

[15] = system: Streptococcus faecium MD; conditions: Enterococcus faecium; S.f., Streptococcus faecium MD; agar dilution; read-out: MIC
Method: as §1, §2
S.f., Streptococcus faecium MD;

[16] = system: Escherichia coli 1507 E; conditions: E.c.4, Escherichia coli 1507 E
Method: as §1, §2
E.c.4, Escherichia coli 1507 E;

[17] = system: Enterobacter cloacae P 99; conditions: Enterobacter cloacae, P99
Method: as §1, §2
En.c.1, Enterobacter cloacae P 99;

[18] = system: Streptococcus pyogenes 308 A; conditions: S.p.1, Streptococcus pyogenes 308 A; agar dilution; read-out: MIC
Method: as §1, §2
S.p.1, Streptococcus pyogenes 308 A;

[19] = system: Escherichia coli DC0; conditions: E.c.2, Escherichia coli DC0
Method: as §1, §2
E.c.2, Escherichia coli DC0;

[20] = system: Escherichia coli TEM; conditions: E.c.3, Escherichia coli TEM
Method: as §1, §2
E.c.3, Escherichia coli TEM;

Structure (SMILES) | MIC [1] [µg/mL] | MIC [2] [µg/mL] | MIC [3] [µg/mL] | MIC [4] [µg/mL] | MIC [5] [µg/mL] | MIC [6] [µg/mL] | MIC [7] [µg/mL] | MIC [8] [µg/mL] | MIC [9] [µg/mL] | MIC [10] [µg/mL] | MIC [11] [µg/mL] | MIC [12] [µg/mL] | MIC [13] [µg/mL] | MIC [14] [µg/mL] | MIC [15] [µg/mL] | MIC [16] [µg/mL] | MIC [17] [µg/mL] | MIC [18] [µg/mL] | MIC [19] [µg/mL] | MIC [20] [µg/mL]
CO/N=C(\C(=O)N[C@@H]1C(=O)N2C(C(=O)[O-])=C(/C=C/C[N+]3(C)CCCCC3CO)CS[C@H]12)c1csc(N)n1 (stereo partly shown) [1-h] | 1.56 (≈ 2.83 µM) | 0.025 (≈ 0.0454 µM) | 0.049 (≈ 0.089 µM) | 1.56 (≈ 2.83 µM) | 0.39 (≈ 0.708 µM) | 0.025 (≈ 0.0454 µM) | 6.25 (≈ 11.3 µM) | 0.007 (≈ 0.0127 µM) | 0.013 (≈ 0.0236 µM) | 0.39 (≈ 0.708 µM) | 3.13 (≈ 5.68 µM) | 0.013 (≈ 0.0236 µM) | 0.098 (≈ 0.178 µM) | 0.2 (≈ 0.363 µM) | 25 (≈ 45.4 µM) | 0.049 (≈ 0.089 µM) | 3.13 (≈ 5.68 µM) | 0.013 (≈ 0.0236 µM) | 0.049 (≈ 0.089 µM) | 0.025 (≈ 0.0454 µM)
CO/N=C(\C(=O)N[C@@H]1C(=O)N2C(C(=O)[O-])=C(/C=C/C[N+](C)(CCO)CCO)CS[C@H]12)c1csc(N)n1 [1-d] | 0.78 (≈ 1.44 µM) | 0.025 (≈ 0.0462 µM) | 0.049 (≈ 0.0906 µM) | 0.78 (≈ 1.44 µM) | 0.39 (≈ 0.721 µM) | 0.025 (≈ 0.0462 µM) | 3.13 (≈ 5.79 µM) | 0.004 (≈ 0.0074 µM) | 0.013 (≈ 0.024 µM) | 0.78 (≈ 1.44 µM) | 1.56 (≈ 2.89 µM) | 0.013 (≈ 0.024 µM) | 0.098 (≈ 0.181 µM) | 0.2 (≈ 0.37 µM) | 50 (≈ 92.5 µM) | 0.098 (≈ 0.181 µM) | 6.25 (≈ 11.6 µM) | 0.013 (≈ 0.024 µM) | 0.049 (≈ 0.0906 µM) | 0.013 (≈ 0.024 µM)
CO/N=C(\C(=O)N[C@@H]1C(=O)N2C(C(=O)[O-])=C(/C=C/C[N+]3(C)CC[C@H](O)[C@H](O)C3)CS[C@H]12)c1csc(N)n1 (relative stereo) [1-e, 7β-[2-(2-Aminothiazol-4-yl)-(Z)-2-methoxyiminoacetamido]-3-[(E)-3-(3,4-cis-dihydroxy-1-methyl-1-piperidinio)-1-propen-1-yl]-3-cephem-4-carboxylate] | 1.56 (≈ 2.82 µM) | 0.025 (≈ 0.0452 µM) | 0.049 (≈ 0.0887 µM) | 3.13 (≈ 5.66 µM) | 0.39 (≈ 0.706 µM) | 0.025 (≈ 0.0452 µM) | 6.25 (≈ 11.3 µM) | 0.013 (≈ 0.0235 µM) | 0.025 (≈ 0.0452 µM) | 0.78 (≈ 1.41 µM) | 3.13 (≈ 5.66 µM) | 0.025 (≈ 0.0452 µM) | 0.2 (≈ 0.362 µM) | 0.2 (≈ 0.362 µM) | 50 (≈ 90.5 µM) | 0.049 (≈ 0.0887 µM) | 6.25 (≈ 11.3 µM) | 0.013 (≈ 0.0235 µM) | 0.049 (≈ 0.0887 µM) | 0.025 (≈ 0.0452 µM)
CO/N=C(\C(=O)N[C@@H]1C(=O)N2C(C(=O)[O-])=C(/C=C/C[N+]3(C)C[C@H](O)C[C@H]3CO)CS[C@H]12)c1csc(N)n1 (stereo partly drawn) [1-c, 7β-[2-(2-Aminothiazol-4-yl)-(Z)-2-methoxyiminoacetamido]-3-[(E)-3-(4R-hydroxy-2S-hydroxymethyl-1-methyl-1-pyrrolidinio)-1-propen-1-yl]-3-cephem-4-carboxylate] | 1.56 (≈ 2.82 µM) | 0.049 (≈ 0.0887 µM) | 0.049 (≈ 0.0887 µM) | 3.13 (≈ 5.66 µM) | 0.39 (≈ 0.706 µM) | 0.025 (≈ 0.0452 µM) | 6.25 (≈ 11.3 µM) | 0.004 (≈ 0.00724 µM) | 0.013 (≈ 0.0235 µM) | 0.78 (≈ 1.41 µM) | 3.13 (≈ 5.66 µM) | 0.013 (≈ 0.0235 µM) | 0.2 (≈ 0.362 µM) | 0.2 (≈ 0.362 µM) | 50 (≈ 90.5 µM) | 0.049 (≈ 0.0887 µM) | 3.13 (≈ 5.66 µM) | 0.013 (≈ 0.0235 µM) | 0.049 (≈ 0.0887 µM) | 0.025 (≈ 0.0452 µM)
CO/N=C(\C(=O)N[C@@H]1C(=O)N2C(C(=O)[O-])=C(/C=C/C[N+]3(C)C[C@@H](O)[C@@H](O)C3)CS[C@H]12)c1csc(N)n1 (stereo partly drawn) [1-a, 7β-[2-(2-Aminothiazol-4-yl)-(Z)-2-methoxyiminoacetamido]-3-[(E)-3-(meso-3,4-dihydroxy-1-methyl-1-pyrrolidinio)-1-propen-1-yl]-3-cephem-4-carboxylate] | 1.56 (≈ 2.9 µM) | 0.025 (≈ 0.0464 µM) | 0.049 (≈ 0.091 µM) | 3.13 (≈ 5.81 µM) | 0.39 (≈ 0.724 µM) | 0.013 (≈ 0.0241 µM) | 3.13 (≈ 5.81 µM) | 0.013 (≈ 0.0241 µM) | 0.013 (≈ 0.0241 µM) | 0.78 (≈ 1.45 µM) | 3.13 (≈ 5.81 µM) | 0.013 (≈ 0.0241 µM) | 0.098 (≈ 0.182 µM) | 0.2 (≈ 0.371 µM) | 50 (≈ 92.8 µM) | 0.049 (≈ 0.091 µM) | 6.25 (≈ 11.6 µM) | 0.013 (≈ 0.0241 µM) | 0.049 (≈ 0.091 µM) | 0.025 (≈ 0.0464 µM)
